From patent US6420428B1, “Treatment and prevention of hepatic disorders” (The Regents of the University of California, priority 1996, dated 2002)
“Also recorded” adds a separate entry of the source.

Experiments:
[1] = in vivo; cited from earlier work
[2] = nutritional- or CCl4-induced injury; cited from earlier work
[3] = tested on: phospholipase A2; conditions: cited from earlier work
[4] = tested on: human polymorphonuclear leukocytes; conditions: stimulated with calcium ionophore A23187; cited from earlier work
[5] = biological target: T1, 5-lipoxygenase (Homo sapiens, UniProt P09917); conditions: cited from earlier work
T1 sequence (P09917 1-674): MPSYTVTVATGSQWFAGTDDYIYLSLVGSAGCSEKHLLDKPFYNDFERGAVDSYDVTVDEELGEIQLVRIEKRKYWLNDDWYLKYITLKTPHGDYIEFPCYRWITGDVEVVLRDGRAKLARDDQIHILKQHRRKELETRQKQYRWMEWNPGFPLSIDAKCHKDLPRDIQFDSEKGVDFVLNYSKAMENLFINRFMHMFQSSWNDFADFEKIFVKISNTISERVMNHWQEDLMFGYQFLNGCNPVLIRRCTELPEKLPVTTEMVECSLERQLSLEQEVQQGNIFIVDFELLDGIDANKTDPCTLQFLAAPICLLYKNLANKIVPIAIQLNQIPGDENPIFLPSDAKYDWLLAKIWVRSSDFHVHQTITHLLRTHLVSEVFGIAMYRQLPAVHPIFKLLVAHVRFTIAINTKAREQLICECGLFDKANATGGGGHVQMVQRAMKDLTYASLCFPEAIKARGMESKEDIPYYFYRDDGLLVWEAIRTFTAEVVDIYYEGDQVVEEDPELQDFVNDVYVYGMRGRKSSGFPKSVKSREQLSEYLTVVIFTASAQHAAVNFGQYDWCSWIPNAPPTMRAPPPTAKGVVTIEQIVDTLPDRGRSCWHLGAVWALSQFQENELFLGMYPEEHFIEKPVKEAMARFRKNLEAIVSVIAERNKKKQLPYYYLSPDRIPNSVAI

[6] = tested on: fatty acid cyclooxygenase; conditions: cited from earlier work
[7] = tested on: cultured stellate cells; conditions: cited from earlier work
[8] = Carbonyl modifications of plasma proteins (index of oxidative stress) in patients; format: in vivo, human; conditions: 1,200 IU/day, 8 weeks; before treatment 2.7±0.4; P<0.001
Source text: (§1) Patients with chronic active hepatitis C and severe necro-inflammatory changes without cirrhosis (as established by liver biopsy) were studied at the University of California San Diego Liver Clinic. Six patients (2 women and 4 men; 47±8 years) who had not responded to interferon α-2b therapy (i.e., who were refractory) and with no other co-morbid illnesses received 1,200 IU/day of d-α-tocopherol orally for 8 weeks. On completion of the study, all patients underwent a liver biopsy; liver sections from patients with chronic hepatitis C and from individuals without liver disease were provided by Dr. C. Behling at UCSD.
(§2) Liver tissue obtained from biopsies was studied, as described below, by immunohistochemistry and in situ hybridization with specific riboprobes. Carbonyl modifications were assayed in plasma proteins, as an index of oxidative stress. [Palinski et al., Arteriosclerosis 10:325-35 (1990)]. Serum alanine aminotransferase (ALT) was determined with a (Hitachi) analyzer, plasma d-α-tocopherol by high pressure chromatography, and HCV RNA by quantitative PCR. [See U.S. Pat. Nos. 4,683,202 and 4,683,195, hereby incorporated by reference].

[9] = tested on: fibrogenesis cascade in the liver of patients with chronic hepatitis C; assay: Liver biopsy immunohistochemistry and in situ hybridization in patients with chronic hepatitis C; format: in vivo, human; conditions: 8 weeks
Method: Antisera to MDA-lysine adducts were prepared by a variation of the technique described by Houglum et al., J Clin Invest 86:1991-98 (1990). Briefly, rabbit LDS was purified and modified with MDA, and the modified autologous LDL was used to immunize rabbits.
Sections from paraffin-embedded blocks were deparaffinized, passed through graded series of alcohol, rehydrated in PBS, and stained with hematoxylin and eosin. Immunohistochemistry was performed using the avidin-biotin complex-alkaline phosphatase, peroxidase systems (Vector Laboratories, ABC-peroxidase system) or fluorescein. Sections were immunostained with antibodies specific for MDA-protein adducts, α-smooth muscle actin (Sigma), or c-myb.
The antisera was used with fluorochrome-conjugated secondary antibodies. Fluorescent labels were visualized using a dual filter Zeiss microscope, while a phase-contrast microscope was used to visualize antigens with hematoxilin/eosin or alkaline phosphatase secondary antibodies.
Hybridization, RNase digestion of mismatched sequences, and immunological detection of the digoxigenin-labeled RNA probes were performed as described by Houglum et al., Am. […] Briefly, single stranded RNA probes in both sense and antisense orientations were transcribed in vitro from the plasmid pHuCol, which contains a 300 base pair cDNA fragment of the human collagen α1(I) gene, and labeled with digoxigenin-11-UTP. […] For the labelling procedure, 2 μg of linearized plasmid were transcribed in a 30 μL reaction volume containing 40 mM tris(hydroxymethyl)aminomethane (Tris).HCl, pH 7.9; 6 mM MgCl2; 2 mM apermidine.HCl; 10 mM dithiothreitol, 10 mM ATP, CTP, and GTP; 6.5 mM UTP; and 3.5 mM digoxigenin-11-UTP with 309 units of T3 or T7 DNA polymerase. The specificity of the probe was assessed by in situ hybridization of human skin. All sections were processed using same batches of probe and reagents and using sense and antisense in parallel.

[10] = tested on: HCV; assay: HCV RNA by quantitative PCR in patients; format: in vivo, human; conditions: 1,200 IU/day, 8 weeks
Source text: as §1, §2

[11] = tested on: hepatic stellate cells; assay: Activation of cultured hepatic stellate cells (α-SMA immunohistochemistry); format: cell-based, Sprague-Dawley rats; conditions: for effect on stellate cell activation / increased α-SMA expression induced by collagen type I matrix: cultured on collagen type I matrix
Method: Stellate cells were prepared from male Sprague-Dawley (400-500 grams) rats (Charles River Breeding Labs) by in situ perfusion of the liver and single-step density Nycodenz® gradient (Accurate Chemical & Scientific Corp.). [See Bedossa et al., Hepatology 19(5):1262-71 (1994); Brenner et al., Mol. Biol. Med. 7:105-15 (1990)]. The cells were mixed with 9.5 mL Hank's buffer containing 3 g/L BSA and 8 mL of 28.7% (w/v) Nycodenz® in sodium-free Hank's buffer. The gradient was generated by placing 6 mL of the Hank's/BSA solution on top of the liver cell mixture in a 50 mL centrifugation tube. […] For TGFα-induced stellate cell activation, cells were cultured on plastic in serum-free defined media (Fibroblast basal medium with Insulin, Clonetics). Fibroblast basal medium is similar to F12 medium, but contains folinic acid, Hepes buffer with NaOH, MgSO4, and adenine instead of folic acid, NaHCO3, MgCl2 and hypoxanthine. Cells were plated on 60-mm dishes coated with collagen type 1, EHS matrix (Matrigel; Collaborative Bio-medical Products) or plastic (according to the experimental design), for the initial seeding of fat-storing cells at a density of 2-3×10^6. Matrigel's major components are […], collagen IV, proteoglycans, entactin and nidogen; it also contains:TGFβ, fibroblast growth factor, and tissue plasminogen activator. […] Medium was changed every 24 h for all conditions. The sequences of c-myb oligonucleotide phosphorothioate were: sense ([NT] ID NO:3) and antisense ([NT] ID NO:4). Stellate cells were identified by their typical autofluorescence at 328 nm excitation wavelength, staining of lipid droplets by oil red, and immunohistochemistry with a monoclonal antibody against desmin. [Bedossa et al., Hepatology 19(5):1262-71 (1994)]. Cells, fixed with acetone:methanol (50:50) at -20° C. for 20 min., and liver tissue were immunostained as described, e.g., by Buck et al., EMBO J. 13:851-60 (1994). Antibodies directed against c-myb, NFkB65, α-SMA, or PCNA were obtained from Sigma, 5 Prime 3 Prime, and Oncogene Sciences. Fluorescent labels were visualized using a dual channel Zeiss microscope and a computer imaging system (Image 1 software). A phase-contrast microscope was utilized to visualize antigens with alkaline phosphatase secondary antibodies (Vector Laboratories). Cytochromes utilized were alkaline phosphatase with fast green as counterstain, and FITC with Evans blue as counterstain (Sigma). The number of PCNA (+), c-myb(+), or NFkB(+), α-SMA(+) cells was expressed as a percentage of total cells. At least 1,000 cells were analyzed for each experimental point, and a minimum of two observers analyzed each immunohistochemical experiment independently. Negative control samples were processed in parallel under the same conditions, but with omission of the first antibody. The role of lipid peroxidation on stellate cell activation was examined. Stellate cell activation was induced in quiescent cells growing on a EHS matrix; inhibition of this phenotype was evaluated with cells activated by collagen type I matrix. [See Davis et al., J. Biol. Chem. 262:10280-86 (1987)]. When stellate cell activation was induced by TGFα as described, e.g., by Pinzani et al., J. Clin. […] Stellate cell activation was assessed by the expression of α-SMA (as described in Example 1) and S-phase by the presence of PCNA. [Bravo et al., Nature (Lond.) 326:515-17 (1987)]. […] SEM<30% of the mean for all conditions).

[12] = tested on: hepatic stellate cells; assay: Proliferation of cultured hepatic stellate cells (nuclear expression of PCNA, S-phase); format: cell-based, Sprague-Dawley rats; conditions: for effect on stellate cell cycle activation (PCNA) induced by collagen type I matrix or TGFα: 50 μM
Method: Stellate cells were prepared from male Sprague-Dawley (400-500 grams) rats (Charles River Breeding Labs) by in situ perfusion of the liver and single-step density Nycodenz® gradient (Accurate Chemical & Scientific Corp.). […] The cells were mixed with 9.5 mL Hank's buffer containing 3 g/L BSA and 8 mL of 28.7% (w/v) Nycodenz® in sodium-free Hank's buffer. The gradient was generated by placing 6 mL of the Hank's/BSA solution on top of the liver cell mixture in a 50 mL centrifugation tube. After centrifugation (1000 g, 4° C., 20 min) the cells were aspirated from above the interface and washed twice in serum-free DME regular glucose medium.
Thereafter, the cells were cultured under an atmosphere of 5% CO2, 95% air in tissue culture dishes using DME medium containing penicillin G 100 units/mL, streptomycin sulfate 100 μg/mL and 10% fetal calf serum. For TGFα-induced stellate cell activation, cells were cultured on plastic in serum-free defined media (Fibroblast basal medium with Insulin, Clonetics). Fibroblast basal medium is similar to F12 medium, but contains folinic acid, Hepes buffer with NaOH, MgSO4, and adenine instead of folic acid, NaHCO3, MgCl2 and hypoxanthine. Cells were plated on 60-mm dishes coated with collagen type 1, EHS matrix (Matrigel; Collaborative Bio-medical Products) or plastic (according to the experimental design), for the initial seeding of fat-storing cells at a density of 2-3×10^6. […]
The number of PCNA (+), c-myb(+), or NFkB(+), α-SMA(+) cells was expressed as a percentage of total cells. At least 1,000 cells were analyzed for each experimental point, and a minimum of two observers analyzed each immunohistochemical experiment independently. […]
The role of lipid peroxidation on stellate cell activation was examined. Stellate cell activation was induced in quiescent cells growing on a EHS matrix; inhibition of this phenotype was evaluated with cells activated by collagen type I matrix. […] Stellate cell activation was assessed by the expression of α-SMA (as described in Example 1) and S-phase by the presence of PCNA.

[13] = tested on: collagen expression; conditions: injected into mice; cited from earlier work
[14] = Plasma d-α-tocopherol by high pressure chromatography in patients; format: in vivo, human; conditions: 1,200 IU/day orally for 8 weeks; before treatment 9.6±4.3; P<0.003
Source text: as §1, §2

[15] = cited from earlier work
[16] = tested on: cyclooxygenase; conditions: cited from earlier work
[17] = biological target: T1, 5-lipoxygenase; conditions: cited from earlier work; remark: listed apart in the source
[18] = tested on: chronic hepatitis B or C; conditions: in vivo; cited from earlier work

Compound: interferon alpha
- patients requiring discontinuance or dosing adjustment [1]: 20-50%

Compound: CCCCC[C@H](O)/C=C/[C@H]1[C@H](O)CC(=O)[C@@H]1C/C=C\CCCC(=O)O [prostaglandin E2]
- hepatocellular necrosis [2]: ameliorate hepatocellular necrosis

Compound: CC(C)(C)c1cc(C=C2SCNC2=O)cc(C(C)(C)C)c1O [LY-178002, 5-{[3,5-bis(1,1-dimethylethyl)-4-hydroxyphenyl]methylene}-4-thiazolidine]
- enzymatic activity of phospholipase A2 [3]: inhibit
- leukotriene B4 production [4]: inhibit leukotriene B4 production
- enzymatic activity of 5-lipoxygenase [5]: inhibit
- enzymatic activity of fatty acid cyclooxygenase [6]: inhibit

Compound: NC1=NN(c2cccc(C(F)(F)F)c2)CC1 [BW-755c]
- inhibition of activation and collagen expression/production [7]: success in inhibiting activation and collagen production

Compound: Cc1c(C)c2c(c(C)c1O)CC[C@@](C)(CCC[C@H](C)CCC[C@H](C)CCCC(C)C)O2 [d-α-tocopherol]
- carbonyl modified plasma proteins after treatment [8]: 1.5 ± 0.4 µmol/mL
- expression of c-myb in stellate cells ([9]; 1,200 IU/day orally): diminished expression of c-myb in stellate cells
- stellate cell activation (α-SMA) in liver sections ([9]; 1,200 IU/day orally): lesser degree of stellate cell activation
- expression of collagen α1(I) mRNA in stellate cells ([9]; 1,200 IU/day orally, in situ hybridization): lower expression of collagen al(I) mRNA in stellate cells
- MDA-adducts in liver sections ([9]; 1,200 IU/day orally, patients refractory to interferon): decreased MDA-adducts
- effect on histologic degree of hepatocellular inflammation ([9]; 1,200 IU/day): did not significantly affect
- effect on HCV titres [10]: did not significantly affect
- hepatocellular necrosis [2]: ameliorate hepatocellular necrosis
- effect on stellate cell activation / increased α-SMA expression induced by collagen type I matrix ([11]; 50 μM): blocked the induction of stellate cell activation by collagen type I matrix; also recorded: abolished
- effect on stellate cell cycle activation (PCNA) induced by collagen type I matrix or TGFα [12]: blocked the activation of the stellate cell cycle
- collagen expression by the skin [13]: did not inhibit collagen expression by the skin
- collagen expression in the liver and tendons [13]: decreases collagen expression in the liver and tendons
- plasma levels of d-α-tocopherol after treatment [14]: 27±6.8

Compound: O=CCC=O [malondialdehyde]
- activation of hepatic stellate cells on EHS matrix ([11]; 50 μM, data not shown): able to activate stellate cells, but to a lesser extent
- activation of hepatic stellate cells on EHS matrix ([11]; 200 μM): markedly stimulated the activation of hepatic stellate cells
- cells (+) for α-SMA ([11]; stellate cells cultured on plastic, 58% without malondialdehyde, P<0.05): 93%
- stellate cell entry into S-phase ([12]; 200 μM, EHS matrix): stimulated stellate cell entry into S-phase

Compound: Cc1cc(C(C)(C)C)c(O)c(C(C)(C)C)c1 [BHT, 2,6-Bis(1,1-dimethylethyl)-4-methylphenol]
- effect on stellate cell activation / increased α-SMA expression induced by collagen type I matrix ([11]; 50 μM): blocked the induction of stellate cell activation by collagen type I matrix; also recorded: abolished
- effect on stellate cell cycle activation (PCNA) induced by collagen type I matrix or TGFα [12]: blocked the activation of the stellate cell cycle
- solubility in alcohols ([15]; alcohols like ethanol and isopropanol): soluble
- solubility in water ([15]; water): insoluble

Compound: C#CCCCC(=O)c1cc(C(C)(C)C)c(O)c(C(C)(C)C)c1 [tebufelone, 4-(5′-hexynoyl)-2,6-di-tert-butylphenol]
- cyclooxygenase inhibition [16]: reversibly inhibits
- 5-lipoxygenase inhibition [17]: reversibly inhibits

Compound: CN1CSC(=Cc2cc(C(C)(C)C)c(O)c(C(C)(C)C)c2)C1=O [LY-256548, 5-{[3,5-bis(1,1-dimethylethyl)-4-hydroxyphenyl]methylene}-4-N-methylthiazolidine]
- enzymatic activity of phospholipase A2 [3]: inhibit
- leukotriene B4 production [4]: inhibit leukotriene B4 production
- enzymatic activity of 5-lipoxygenase [5]: inhibit
- enzymatic activity of fatty acid cyclooxygenase [6]: inhibit

Compound: CC(C)(Sc1cc(C(C)(C)C)c(O)c(C(C)(C)C)c1)Sc1cc(C(C)(C)C)c(O)c(C(C)(C)C)c1 [probucol]
- inhibition of activation and collagen expression/production [7]: success in inhibiting activation and collagen production

Compound: CCCOC(=O)c1cc(O)c(O)c(O)c1 [propyl gallate]
- inhibition of activation and collagen expression/production [7]: success in inhibiting activation and collagen production

Compound: NC(=O)c1ncn([C@@H]2O[C@H](CO)[C@@H](O)[C@H]2O)n1 [ribovirin]
- effectiveness [18]: neither has been shown to be very effective
